Laboratory results taken from ChEMBL document CHEMBL3286249 (Eur J Med Chem, 2014).

molecular target: Carbonic anhydrase 2 (Homo sapiens, UniProt P00918)

| Ki | SMILES |
| --- | --- |
| 8.7 nM | Cc1nnc(-c2cc(S(N)(=O)=O)c(Cl)cc2Cl)o1 |

molecular target: Carbonic anhydrase 9 (Homo sapiens, UniProt Q16790)

| SMILES | Ki |
| --- | --- |
| NS(=O)(=O)c1cc(C(=O)NNC(=S)Nc2ccc(Cl)cc2)c(Cl)cc1Cl | 27 nM |
| NS(=O)(=O)c1cc(-c2nnc(-c3ccccc3)s2)c(Cl)cc1Cl | 13.6 nM |
| NS(=O)(=O)c1cc(NC(=O)N2CCN(Cc3ccc4c(c3)OCO4)CC2)c(Cl)cc1Cl | 76 nM |
| NS(=O)(=O)c1cc(NC(=O)NOCc2ccccc2)c(Cl)cc1Cl | 18.9 nM |
| NS(=O)(=O)c1cc(C(=O)NNC(=S)Nc2ccccc2)c(Cl)cc1Cl | 31 nM |
| NS(=O)(=O)c1ccc(NC(=O)Nc2cc(S(N)(=O)=O)c(Cl)cc2Cl)cc1 | 15.8 nM |
| Cc1ccc(S(=O)(=O)NC(=O)NNC(=O)c2cc(S(N)(=O)=O)c(Cl)cc2Cl)cc1 | 15.3 nM |
| NS(=O)(=O)c1cc(-c2nnc(Nc3ccccc3)o2)c(Cl)cc1Cl | 13.8 nM |
| NS(=O)(=O)c1cc(-c2nnc(Nc3ccc(Cl)cc3)o2)c(Cl)cc1Cl | 15.1 nM |
| NS(=O)(=O)c1cc(NC(=O)NCCCN2CCOCC2)c(Cl)cc1Cl | 38 nM |

Results, then the compound that gave them:

| Ki | SMILES |
| --- | --- |
| 13.2 nM | NS(=O)(=O)c1cc(-c2nnc(-c3ccccc3)o2)c(Cl)cc1Cl |
| 12.5 nM | NS(=O)(=O)c1cc(NC(=O)NNC(=O)c2ccccc2)c(Cl)cc1Cl |
| 10.9 nM | NS(=O)(=O)c1cc(-c2nnc(-c3ccc(Cl)cc3)o2)c(Cl)cc1Cl |
| 10.2 nM | NS(=O)(=O)c1cc(C(=O)NNC(=O)c2ccccc2)c(Cl)cc1Cl |
| 9.7 nM | NS(=O)(=O)c1cc(-c2nnc(-c3ccccc3)[nH]2)c(Cl)cc1Cl |
| 7.1 nM | NS(=O)(=O)c1cc(NC(=O)Nc2ccc(Cl)cc2)c(Cl)cc1Cl |
| 7 nM | NS(=O)(=O)c1cc(NC(=O)Nc2ccccc2)c(Cl)cc1Cl |
| 5.5 nM | Cc1ccc(C(=O)NNC(=O)c2cc(S(N)(=O)=O)c(Cl)cc2Cl)cc1 |
| 3.9 nM | NS(=O)(=O)c1cc(C(=O)NNC(=O)c2ccco2)c(Cl)cc1Cl |

molecular target: Carbonic anhydrase 1 (Homo sapiens, UniProt P00915)
Sequence (P00915 whole entry): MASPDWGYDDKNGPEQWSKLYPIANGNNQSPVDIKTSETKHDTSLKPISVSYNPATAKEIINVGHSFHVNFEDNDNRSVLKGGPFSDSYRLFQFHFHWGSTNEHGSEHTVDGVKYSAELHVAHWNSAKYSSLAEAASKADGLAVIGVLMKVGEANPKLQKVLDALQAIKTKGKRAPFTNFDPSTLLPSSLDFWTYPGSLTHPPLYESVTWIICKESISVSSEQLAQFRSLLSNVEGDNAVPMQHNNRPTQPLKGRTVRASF

| Ki | SMILES |
| --- | --- |
| 718 nM | Cc1nnc(-c2cc(S(N)(=O)=O)c(Cl)cc2Cl)o1 |

molecular target: Carbonic anhydrase 12 (Homo sapiens, UniProt O43570)
Sequence (O43570 whole entry): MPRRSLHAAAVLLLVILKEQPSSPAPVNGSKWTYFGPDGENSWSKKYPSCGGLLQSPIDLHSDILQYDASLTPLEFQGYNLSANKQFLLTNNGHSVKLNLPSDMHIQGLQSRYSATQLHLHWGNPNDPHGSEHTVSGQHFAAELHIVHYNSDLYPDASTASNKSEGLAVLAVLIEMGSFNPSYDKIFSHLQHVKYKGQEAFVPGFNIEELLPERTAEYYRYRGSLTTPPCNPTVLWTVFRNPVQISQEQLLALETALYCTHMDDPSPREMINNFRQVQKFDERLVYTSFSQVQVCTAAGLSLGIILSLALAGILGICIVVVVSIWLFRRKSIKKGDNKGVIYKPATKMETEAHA

| Ki | SMILES |
| --- | --- |
| 6.3 nM | Cc1nnc(-c2cc(S(N)(=O)=O)c(Cl)cc2Cl)o1 |
